Test results taken from patent US10501464B2, “7-oxo-6-(sulfooxy)-1,6-diazabicyclo[3.2.1]octane-2-carboxamide containing compounds and their use in treating bacterial infections” (WOCKHARDT LIMITED, priority 2015, dated 2019).
Where a name gives a salt, the structure may show the parent alone. Read-outs that look alike come from different tables or passages of the source.

Columns and labels:
Assay in all cases: Antibacterial activity, MIC by agar dilution (CLSI)
Type in all cases: cell-based
E. coli M 50 = conditions: compound tested alone
Method: (§1) The biological activity of representative compounds according to the invention against various bacterial strains was investigated. In a typical study, overnight grown bacterial cultures were diluted appropriately and inoculated on the agar media containing doubling dilutions of the test compounds. Observations for growth or no growth was performed after 16-20 hours of incubation at 35±2° C. in the ambient air. The overall procedure was performed as per Clinical and Laboratory Standards Institute (CLSI) recommendations, (Clinical and Laboratory Standards Institute (CLSI), Performance Standards for Antimicrobial Susceptibility Testing, 20th Informational Supplement, M07-A9, Volume 32, No. 2, 2012). Molten Mueller Hinton Agar (BD, USA) containing serial dilutions of each antibacterial agent were poured on to the plates and allowed to solidify. Appropriate suspensions from the freshly grown cultures were prepared in normal saline so that about 10^4CFU/spot of the organism was delivered on to the drug containing agar plates using automated multipoint inoculator (Mast, UK). The plates were incubated in Biochemical oxygen demand (BOD) incubator at 37° C. for 18 hours and then examined for growth.
(§2) Method for the determination of MIC: The Minimum Inhibitory Concentration (MIC) determination for the combinations was carried out in Muller Hinton Agar (MHA) (BD, USA) according to Clinical and Laboratory Standards Institute (CLSI) recommendations, (Clinical and Laboratory Standards Institute (CLSI), Performance Standards for Antimicrobial Susceptibility Testing, 20th Informational Supplement, M 100-S20, Volume 30, No. 1, 2010). In short, the test strains were adjusted to deliver about 10^4CFU per spot with a multipoint inoculator (Applied Quality Services, UK). The plates were poured with MHA containing doubling concentration range of representative compounds according to present invention. The plates were inoculated and were incubated at 35° C. for 18 hour. […] The Table 2 depicts the antibacterial activity profile of compounds according to present invention against various multidrug resistant bacterial strains.

K. pneumoniae H 523 = conditions: compound tested alone
Method: as §1, §2

K. pneumoniae H 522 = conditions: compound tested alone
Method: as §1, §2

[1] = tested on: K. pneumoniae ATCC 700603
Method: as §1, §2

E. coli 7 MP = conditions: compound tested alone
Method: as §1, §2

E. coli M 36 = conditions: compound tested alone
Method: as §1, §2

E. coli M 49 = conditions: compound tested alone
Method: as §1, §2

E. coli 13352 = conditions: compound tested alone
Method: as §1, §2

K. pneumoniae H 525 = conditions: compound tested alone
Method: as §1, §2

P. mirabilis S 137B = conditions: compound tested alone
Method: as §1, §2

K. pneumoniae H 521 = conditions: compound tested alone
Method: as §1, §2

E. coli 13353 = conditions: compound tested alone
Method: as §1, §2

E. coli 13351 = conditions: compound tested alone
Method: as §1, §2

E. coli M 138 = conditions: compound tested alone
Method: as §1, §2

[2] = Escherichia coli, M50, E. coli M 50, read-out: MIC
[3] = Klebsiella pneumoniae, H523, K. pneumoniae H 523, read-out: MIC
[4] = Klebsiella pneumoniae, H522, K. pneumoniae H 522, read-out: MIC
[5] = Klebsiella pneumoniae, ATCC700603, compound tested alone, read-out: MIC
[6] = Escherichia coli, 7MP, read-out: MIC
[7] = Escherichia coli, M36, E. coli M 36, read-out: MIC
[8] = Escherichia coli, M49, E. coli M 49, read-out: MIC
[9] = Escherichia coli, 13352, E. coli 13352, read-out: MIC
[10] = Klebsiella pneumoniae, H525, K. pneumoniae H 525, read-out: MIC
[11] = Proteus mirabilis, S137B, read-out: MIC
[12] = Klebsiella pneumoniae, H521, K. pneumoniae H 521, read-out: MIC
[13] = Escherichia coli, 13353, E. coli 13353, read-out: MIC
[14] = Escherichia coli, 13351, E. coli 13351, read-out: MIC
[15] = Escherichia coli, M138, E. coli M 138, read-out: MIC

Compound	MIC (E. coli M 50; [2]) [µg/mL]	MIC (K. pneumoniae H 523; [3]) [µg/mL]	MIC (K. pneumoniae H 522; [4]) [µg/mL]	MIC [1, 5] [µg/mL]	MIC (E. coli 7 MP; [6]) [µg/mL]	MIC (E. coli M 36; [7]) [µg/mL]	MIC (E. coli M 49; [8]) [µg/mL]	MIC (E. coli 13352; [9]) [µg/mL]	MIC (K. pneumoniae H 525; [10]) [µg/mL]	MIC (P. mirabilis S 137B; [11]) [µg/mL]	MIC (K. pneumoniae H 521; [12]) [µg/mL]	MIC (E. coli 13353; [13]) [µg/mL]	MIC (E. coli 13351; [14]) [µg/mL]	MIC (E. coli M 138; [15]) [µg/mL]	further results
O=C(NOC[C@H]1C[C@H](N2CCOCC2)CN1)[C@@H]1CC[C@@H]2CN1C(=O)N2OS(=O)(=O)O [Example 2, Trifluoro acetic acid salt of (2S,5R)-N-{[(2R,4S)-4-(morpholin-4-yl)pyrrolidin-2-yl]methoxy}-7-oxo-6-(sulfooxy)-1,6-diazabicyclo[3.2.1]octane-2-carboxamide]	1	1	1	> 32	2	1	4	1	1	–	1	1	1	1	–
CN1CCN([C@H]2CNC(CONC(=O)[C@@H]3CC[C@@H]4CN3C(=O)N4OS(=O)(=O)O)C2)CC1 (some centres unmarked) [Example 22]	–	–	–	–	–	–	–	–	–	–	–	–	–	–	MIC (E. coli M 50; E. coli M 50): 8 µg/mL; MIC (K. pneumoniae H 523; K. pneumoniae H 523): 8 µg/mL; MIC (K. pneumoniae H 522; K. pneumoniae H 522): 8 µg/mL; MIC ([1]; compound tested alone): >32 µg/mL; MIC (E. coli 7 MP): 16 µg/mL; MIC (E. coli M 36; E. coli M 36): 4 µg/mL; MIC (E. coli M 49; E. coli M 49): 8 µg/mL; MIC (E. coli 13352; E. coli 13352): 16 µg/mL; MIC (K. pneumoniae H 525; K. pneumoniae H 525): 8 µg/mL; MIC (K. pneumoniae H 521; K. pneumoniae H 521): 8 µg/mL; MIC (E. coli 13353; E. coli 13353): 4 µg/mL; MIC (E. coli 13351; E. coli 13351): 8 µg/mL; MIC (E. coli M 138; E. coli M 138): 8 µg/mL
O=C(NNC(=O)[C@@H]1CC[C@@H]2CN1C(=O)N2OS(=O)(=O)O)C1C[C@H](n2ccnc2)CN1 (some centres unmarked) [Example 34]	–	–	–	–	–	–	–	–	–	–	–	–	–	–	MIC (E. coli M 50; E. coli M 50): 8 µg/mL; MIC (K. pneumoniae H 523; K. pneumoniae H 523): 8 µg/mL; MIC (K. pneumoniae H 522; K. pneumoniae H 522): 8 µg/mL; MIC ([1]; compound tested alone): >32 µg/mL; MIC (E. coli 7 MP): 16 µg/mL; MIC (E. coli M 36; E. coli M 36): 4 µg/mL; MIC (E. coli M 49; E. coli M 49): 4 µg/mL; MIC (E. coli 13352; E. coli 13352): 8 µg/mL; MIC (K. pneumoniae H 525; K. pneumoniae H 525): 8 µg/mL; MIC (P. mirabilis S 137B): >32 µg/mL; MIC (K. pneumoniae H 521; K. pneumoniae H 521): 8 µg/mL; MIC (E. coli 13353; E. coli 13353): 4 µg/mL; MIC (E. coli 13351; E. coli 13351): 4 µg/mL
O=C(NOCC1C[C@@H](N2CCCCC2)CN1)[C@@H]1CC[C@@H]2CN1C(=O)N2OS(=O)(=O)O (some centres unmarked) [Example 19]	8	8	8	> 32	> 32	8	32	8	8	–	8	4	8	8	–
O=C(NOCC1C[C@H](N2CCOCC2)CN1)[C@@H]1CC[C@@H]2CN1C(=O)N2OS(=O)(=O)O (some centres unmarked) [Example 17]	8	8	8	> 32	16	4	16	8	8	–	8	4	8	4	–
O=C(NOCC1C[C@@H](N2CCNCC2)CN1)[C@@H]1CC[C@@H]2CN1C(=O)N2OS(=O)(=O)O (some centres unmarked) [Example 20]	8	8	8	> 32	16	4	16	16	8	–	8	8	8	4	–
O=C(NOCC1C[C@H](N2CCCCC2)CN1)[C@@H]1CC[C@@H]2CN1C(=O)N2OS(=O)(=O)O (some centres unmarked) [Example 18]	2	2	2	> 32	4	2	16	2	2	–	2	1	2	2	–

The next lines start with results.

MIC (E. coli M 50; [2]) [µg/mL]	MIC (K. pneumoniae H 523; [3]) [µg/mL]	MIC (K. pneumoniae H 522; [4]) [µg/mL]	MIC [1, 5] [µg/mL]	MIC (E. coli 7 MP; [6]) [µg/mL]	MIC (E. coli M 36; [7]) [µg/mL]	MIC (E. coli M 49; [8]) [µg/mL]	MIC (E. coli 13352; [9]) [µg/mL]	MIC (K. pneumoniae H 525; [10]) [µg/mL]	MIC (P. mirabilis S 137B; [11]) [µg/mL]	MIC (K. pneumoniae H 521; [12]) [µg/mL]	MIC (E. coli 13353; [13]) [µg/mL]	MIC (E. coli 13351; [14]) [µg/mL]	MIC (E. coli M 138; [15]) [µg/mL]	Compound	further results
4	4	4	> 32	8	4	16	2	4	> 32	4	4	2	4	O=C(NNC(=O)[C@@H]1CC[C@@H]2CN1C(=O)N2OS(=O)(=O)O)[C@@H]1C[C@H](n2cnnn2)CN1 [Example 24]	–
1	2	2	> 32	2	1	4	2	2	> 32	2	1	2	1	O=C(NOC[C@@H]1C[C@H](n2cncn2)CN1)[C@@H]1CC[C@@H]2CN1C(=O)N2OS(=O)(=O)O [Example 9]	–
1	2	2	> 32	2	0.5	4	1	2	> 32	2	0.5	1	1	O=C(NOC[C@H]1C[C@H](n2ccnc2)CN1)[C@@H]1CC[C@@H]2CN1C(=O)N2OS(=O)(=O)O [Example 7]	–
1	4	4	> 32	2	1	8	1	4	> 32	4	1	1	1	O=C(NOC[C@@H]1C[C@H](n2nccn2)CN1)[C@@H]1CC[C@@H]2CN1C(=O)N2OS(=O)(=O)O [Example 5]	–
8	16	16	> 32	16	4	> 32	4	8	> 32	16	4	4	8	Cc1nnn([C@@H]2CN[C@H](C(=O)NNC(=O)[C@@H]3CC[C@@H]4CN3C(=O)N4OS(=O)(=O)O)C2)n1 [Example 31]	–
0.5	2	2	> 32	2	0.5	4	1	2	> 32	2	0.5	1	1	O=C(NNC(=O)[C@@H]1CC[C@@H]2CN1C(=O)N2OS(=O)(=O)O)[C@@H]1C[C@H](n2cncn2)CN1 [Example 29]	–
8	4	4	> 32	16	4	16	8	8	–	8	4	8	4	CN1CCN([C@H]2CNC(CONC(=O)[C@@H]3CC[C@@H]4CN3C(=O)N4OS(=O)(=O)O)C2)CC1 (some centres unmarked) [Example 21]	–
